Assay results reported in US8632839B2, “Methods of forming self-supporting films for delivery of therapeutic agents” (priority 2010, dated 2014).
Structures can show the parent of a compound that is named as a salt.

Assay: saturation and payload limits for dip coating bupivacaine HCl on polyester mesh (FIG. 8)
Assay type: physicochemical
Conditions: Parietex monofilament polyester mesh without polymer film
Excerpt: Further, it is believed that spraying films on a medical device (e.g., mesh) compared to other conventional methods, such as dip coating, provides increased loading of the therapeutic agent.
More particularly FIG. 8 illustrates the loading limits for a polyester mesh (Parietex™ monofilament mesh) without a polymer film.

## CCCCN1CCCCC1C(=O)Nc1c(C)cccc1C (centres unmarked) [bupivacaine HCl, bupivacaine hydrochloride]
Solution in MeOH
  saturation and payload limit for dip coating solution: 12 % w/v
Solution in water
  saturation and payload limit for dip coating solution: 5 % w/v
